Laboratory results from the supplement of paper PMC10307832.

Columns and labels:
Assay in all cases: relative viability (nuclei count vs DMSO), 5 days (fraction); higher = more cells survive
Elesclomol = compound: CN(NC(=O)CC(=O)NN(C)C(=S)c1ccccc1)C(=S)c1ccccc1 [Elesclomol]
Method in brief: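 For viability, nuclei in each treated well were divided by nuclei in vehicle wells and the median across plates was taken. Lung cancer cell lines in 1536-well plates were pinned with five library-drug doses (not always all listed) spaced by √10, cultured 5 days without medium change, and imaged at 4× after Hoechst staining, with plates passing only at control CV below 25% and at least one doubling.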

Elesclomol + Navitoclax = compound: CN(NC(=O)CC(=O)NN(C)C(=S)c1ccccc1)C(=S)c1ccccc1 [Elesclomol] + CC1(C)CCC(c2ccc(Cl)cc2)=C(CN2CCN(c3ccc(C(=O)NS(=O)(=O)c4ccc(N[C@H](CCN5CCOCC5)CSc5ccccc5)c(S(=O)(=O)C(F)(F)F)c4)cc3)CC2)C1 [Navitoclax] (partner 0.5 µM)
Method in brief: (§1)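 Values are medians from duplicate plates. Each reflects relative viability, defined as the nuclei count of treated wells over that of vehicle wells. Lung cancer cell lines in 1536-well plates were pin-tool dosed one day after seeding with one drug alone or with a fixed anchor-drug dose plus five library-drug doses (not always all listed) in √10 steps, then fixed, stained and imaged at 4× after 5 days.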

Elesclomol + Foretinib = compound: CN(NC(=O)CC(=O)NN(C)C(=S)c1ccccc1)C(=S)c1ccccc1 [Elesclomol] + COc1cc2c(Oc3ccc(NC(=O)C4(C(=O)Nc5ccc(F)cc5)CC4)cc3F)ccnc2cc1OCCCN1CCOCC1 [Foretinib] (partner 0.25 µM)
Method in brief: as §1

Elesclomol + Pictilisib = compound: CN(NC(=O)CC(=O)NN(C)C(=S)c1ccccc1)C(=S)c1ccccc1 [Elesclomol] + CS(=O)(=O)N1CCN(Cc2cc3nc(-c4cccc5[nH]ncc45)nc(N4CCOCC4)c3s2)CC1 [Pictilisib] (partner 1 µM)
Method in brief: as §1

Elesclomol + Crizotinib = compound: CN(NC(=O)CC(=O)NN(C)C(=S)c1ccccc1)C(=S)c1ccccc1 [Elesclomol] + C[C@@H](Oc1cc(-c2cnn(C3CCNCC3)c2)cnc1N)c1c(Cl)ccc(F)c1Cl [Crizotinib] (partner 1 µM)
Method in brief: as §1

Elesclomol + Alpelisib = compound: CN(NC(=O)CC(=O)NN(C)C(=S)c1ccccc1)C(=S)c1ccccc1 [Elesclomol] + Cc1nc(NC(=O)N2CCC[C@H]2C(N)=O)sc1-c1ccnc(C(C)(C)C(F)(F)F)c1 [Alpelisib] (partner 2 µM)
Method in brief: as §1

Elesclomol + Bortezomib = compound: CN(NC(=O)CC(=O)NN(C)C(=S)c1ccccc1)C(=S)c1ccccc1 [Elesclomol] + CC(C)C[C@H](NC(=O)[C@H](Cc1ccccc1)NC(=O)c1cnccn1)B(O)O [Bortezomib] (partner 0.002 µM)
Method in brief: as §1

Elesclomol + Linsitinib = compound: CN(NC(=O)CC(=O)NN(C)C(=S)c1ccccc1)C(=S)c1ccccc1 [Elesclomol] + C[C@]1(O)C[C@@H](c2nc(-c3ccc4ccc(-c5ccccc5)nc4c3)c3c(N)nccn32)C1 [Linsitinib] (partner 1 µM)
Method in brief: as §1

Elesclomol + Olaparib = compound: CN(NC(=O)CC(=O)NN(C)C(=S)c1ccccc1)C(=S)c1ccccc1 [Elesclomol] + O=C(c1cc(Cc2n[nH]c(=O)c3ccccc23)ccc1F)N1CCN(C(=O)C2CC2)CC1 [Olaparib] (partner 8 µM)
Method in brief: as §1

Elesclomol + Lapatinib = compound: CN(NC(=O)CC(=O)NN(C)C(=S)c1ccccc1)C(=S)c1ccccc1 [Elesclomol] + CS(=O)(=O)CCNCc1ccc(-c2ccc3ncnc(Nc4ccc(OCc5cccc(F)c5)c(Cl)c4)c3c2)o1 [Lapatinib] (partner 2 µM)
Method in brief: as §1

Cell Line	relative viability (Elesclomol; 0.003162 µM)	relative viability (Elesclomol; 0.01 µM)	relative viability (Elesclomol; 0.03162 µM)	relative viability (Elesclomol; 0.1 µM)	relative viability (Elesclomol + Navitoclax; first compound 0.003162 µM)	relative viability (Elesclomol + Navitoclax; first compound 0.01 µM)	relative viability (Elesclomol + Navitoclax; first compound 0.03162 µM)	relative viability (Elesclomol + Navitoclax; first compound 0.1 µM)	relative viability (Elesclomol + Foretinib; first compound 0.003162 µM)	relative viability (Elesclomol + Foretinib; first compound 0.01 µM)	relative viability (Elesclomol + Foretinib; first compound 0.03162 µM)	relative viability (Elesclomol + Foretinib; first compound 0.1 µM)	relative viability (Elesclomol + Pictilisib; first compound 0.003162 µM)	relative viability (Elesclomol + Pictilisib; first compound 0.01 µM)	relative viability (Elesclomol + Pictilisib; first compound 0.03162 µM)	relative viability (Elesclomol + Pictilisib; first compound 0.1 µM)	relative viability (Elesclomol + Crizotinib; first compound 0.003162 µM)	relative viability (Elesclomol + Crizotinib; first compound 0.01 µM)	relative viability (Elesclomol + Crizotinib; first compound 0.03162 µM)	relative viability (Elesclomol + Crizotinib; first compound 0.1 µM)	relative viability (Elesclomol + Alpelisib; first compound 0.003162 µM)	relative viability (Elesclomol + Alpelisib; first compound 0.01 µM)	relative viability (Elesclomol + Alpelisib; first compound 0.03162 µM)	relative viability (Elesclomol + Alpelisib; first compound 0.1 µM)	relative viability (Elesclomol + Bortezomib; first compound 0.003162 µM)	relative viability (Elesclomol + Bortezomib; first compound 0.01 µM)	relative viability (Elesclomol + Bortezomib; first compound 0.03162 µM)	relative viability (Elesclomol + Bortezomib; first compound 0.1 µM)	relative viability (Elesclomol + Linsitinib; first compound 0.003162 µM)	relative viability (Elesclomol + Linsitinib; first compound 0.01 µM)	relative viability (Elesclomol + Linsitinib; first compound 0.03162 µM)	relative viability (Elesclomol + Linsitinib; first compound 0.1 µM)	relative viability (Elesclomol + Olaparib; first compound 0.003162 µM)	relative viability (Elesclomol + Olaparib; first compound 0.01 µM)	relative viability (Elesclomol + Olaparib; first compound 0.03162 µM)	relative viability (Elesclomol + Olaparib; first compound 0.1 µM)	relative viability (Elesclomol + Lapatinib; first compound 0.003162 µM)	relative viability (Elesclomol + Lapatinib; first compound 0.01 µM)	relative viability (Elesclomol + Lapatinib; first compound 0.03162 µM)	relative viability (Elesclomol + Lapatinib; first compound 0.1 µM)
Calu-6	0.768	0.317	0.304	0.138	0.476	0.166	0.122	0.0729	0.511	0.15	0.0883	0.0356	0.573	0.239	0.164	0.111	0.501	0.222	0.247	0.121	0.727	0.243	0.229	0.127	0.787	0.322	0.16	0.155	0.737	0.223	0.285	0.153	0.477	0.219	0.177	0.121	0.602	0.276	0.3	0.12
EBC-1	0.983	0.74	0.506	0.349	0.374	0.228	0.146	0.132	0.11	0.1	0.0784	0.0763	0.335	0.17	0.156	0.148	0.18	0.199	0.151	0.135	0.733	0.354	0.268	0.206	0.497	0.436	0.208	0.156	0.892	0.614	0.484	0.227	0.655	0.544	0.487	0.291	0.239	0.183	0.177	0.157
